# Experimental data from ChEMBL document CHEMBL1147784, “Crystal structure of human ERK2 complexed with a pyrazolo[3,4-c]pyridazine derivative” (Bioorg Med Chem Lett, 2006).
# Target: Mitogen-activated protein kinase 1 (Homo sapiens, UniProt P28482)
# Test: Inhibitory activity against human ERK2
# Chain of Mitogen-activated protein kinase 1 (P28482 whole entry): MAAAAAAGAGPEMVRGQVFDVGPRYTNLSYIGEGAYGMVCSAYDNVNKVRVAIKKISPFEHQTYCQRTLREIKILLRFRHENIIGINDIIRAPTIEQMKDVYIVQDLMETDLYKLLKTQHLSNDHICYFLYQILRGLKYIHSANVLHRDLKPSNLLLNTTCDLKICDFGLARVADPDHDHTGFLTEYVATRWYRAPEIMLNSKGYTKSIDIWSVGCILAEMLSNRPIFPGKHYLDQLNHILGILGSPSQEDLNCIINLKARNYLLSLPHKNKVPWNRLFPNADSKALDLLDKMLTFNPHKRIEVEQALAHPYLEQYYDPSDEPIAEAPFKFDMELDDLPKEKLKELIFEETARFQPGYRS
row,SMILES,IC50
1,C=CCn1nc(N)c2cc(-c3c(-c4ccccc4)nn4ccccc34)nnc21,560 nM
2,Nc1nn(CCO)c2nnc(-c3c(-c4ccccc4)nn4ccccc34)cc12,5100 nM
3,Cn1nc(N)c2cc(-c3c(-c4ccccc4)nn4ccccc34)nnc21,1400 nM
